Consider two molecules from patent US20240115654A1, “INTRAVENOUS ADMINISTRATION OF ENGINEERED ANTIMICROBIAL AMPHIPHILIC PEPTIDES” (priority 2021, published 2024).

Converted amounts (≈) assume the structure as drawn. “And” between values parts separate entries of the source, which are not always exact repeats. Identical values can stand only once. Like-named read-outs stand apart in the source and are kept apart here. Peptide text beside a SMILES is read from it.

The test system of series [1] is Enterococcus faecium isolates (n = 104). The series is described as follows: microbe, parasite or virus in culture. How it is done:
Comparator antibiotics were supplied by Micromyx, and stock solutions were prepared on the first day of testing using solvents recommended by CLSI (1). Stock solutions of all compounds were made at 40× the final testing concentration and stored at −80° C. prior to testing. Information regarding compound source, catalog and lot number, testing concentrations and drug diluent for the comparators and test agent are detailed below in Table 3.
The test organisms evaluated in this study consisted of clinical isolates from the Micromyx Repository and reference isolates from the American Type Culture Collection (ATCC; Manassas, VA). The clinical isolates were obtained from USA hospitals. Upon initial receipt at Micromyx, the organisms were sub-cultured onto an appropriate agar medium. Following incubation, colonies were harvested from these plates and cell suspensions prepared and frozen at −80° C. with a cryoprotectant. […] Plates were incubated at 35° C. overnight.
MIC values were determined using a broth microdilution procedure described by CLSI (1, 3).
The test articles and comparator compounds (300 μl at 40× the highest concentration to be tested) were dispensed into the appropriate wells in column 1. The Biomek 2000 was then used to make 2-fold serial dilutions in the mother plates from column 1 through column 11. The wells of Column 12 contained no drug and served as the organism growth control wells for the assay.
The daughter plates were completed on the Biomek FX instrument which transferred 5 μL of drug solution from each well of a mother plate to the corresponding well of each daughter plate in a single step. A standardized inoculum of each test organism was prepared per CLSI methods (1). The inoculum for each organism was dispensed into sterile reservoirs divided by length (Beckman Coulter), and the Biomek 2000 was used to inoculate the plates. Daughter plates were placed on the Biomek 2000 work surface in reverse orientation so that inoculation took place from low to high drug concentration.
Plates were stacked 3-4 high, covered with a lid on the top plate, placed in plastic bags, and incubated at 35° C. for 16 to 20 hrs. Following incubation, the microplates were removed from the incubator and viewed from the bottom using a plate viewer. […] The MIC was read and recorded as the lowest concentration of drug that inhibited visible growth of the organism.
Clinical breakpoints to determine percent resistance within a given organism group were obtained from CLSI (3), with the exception of colistin for K. pneumoniae, Enterobacter spp., and E. coli, which are only available from EUCAST.

For series [2] the following is noted: 30 min IV infusion. How it is done:
Animals will be obtained from the Test Facility's colony of adult male cynomolgous monkeys (Macaca fascicularis) of Chinese origin. Animals will be weighed prior to dosing.
Animals will be fasted a minimum of 2 hours prior to procedures requiring the administration of ketamine anesthesia. The diet will also be supplemented with other nutrients by feeding items such as raisins or fresh fruits that are presented to the animal as part of an environmental enrichment program. Offering items known to cause diarrhea will be avoided.
Intravenous administration will be via 30 minute infusion into a temporary percutaneous catheter placed into a saphenous vein. Prior to and following dose administration, the catheter will be flushed with 0.5 mL saline prior to removal. All dosing syringes will be weighed prior to and following dosing.
Serial blood samples will be collected via femoral vein (cephalic or saphenous, as necessary). Approximately 1 mL blood samples will be collected into K2EDTA tubes.
Blood samples will be collected into K2EDTA tubes and stored on wet ice. Whole blood will be processed to plasma by centrifugation (2400-2700 rpm at 5° C.) within 30 minutes of collection. Plasma samples will be split into 2 equal aliquots and stored at −80° C. until analysis.
Prior to extraction, a known concentration of a mass-adjusted internal standard (IS) will be added to assess recovery and allow for quantitation. Purified samples will be further subjected to high-performance liquid chromatography (HPLC) using C18 300 or 130 angstrom columns prior to MS/MS analysis. Multiple charge states will be observed by MS, so MS/MS will be employed to enable multiple reaction monitoring (MRM) analyses to determine the most MRM transitions with the highest signal-to-noise gain. Compound plasma concentrations will be determined by comparing to and compensating with co-purified IS peak intensity and validated calibrated standard curves.
Toxicokinetic parameters will be calculated using non-compartmental methods as implemented in the Phoenix® WinNonlin® ver. 6.3 comprehensive TK/PK analysis software program (Pharsight Corporation; Mountain View, CA) using an IV infusion model. Toxicokinetic analysis will be conducted using a 30-minute intravenous infusion time. Therefore, 30 minutes will be added to each sample time point postdose to obtain nominal time for TK analysis. Nominal times and dosage levels will be used for all calculations. Values below the lower limit of quantitation (BLQ) will be assigned a value of zero for the toxicokinetic calculations. Microsoft® Excel® 2013 will be used for receipt of bioanalytical data, minor formatting, including setting BLQ values to “0”, transfer into WinNonlin® for TK analysis, and calculation of the mean when an approximated value will be excluded. All plasma concentration data from all animals will be included in the analysis. Graphical presentations will be performed using Prism® for Macintosh ver. 7.0a (GraphPad, Inc.; La Jolla, CA).

Series [3] has as its system Escherichia coli ATCC 25922 (QC). Conditions: E. coli ATCC 25922; established CLSI QC range; cited from earlier work.
Where [4] appears, read: IV infusion 1 mg/kg, Group 1, mean of rats.
Setting [5] is: IV infusion 5 mg/kg, Group 2, mean of rats.
Where [6] appears, read: IV infusion 10 mg/kg, Group 4, mean of rats.

By Vss is commonly meant the apparent volume that relates the amount in the body to the concentration in plasma or blood. Broadly, the Tmax is the time at which the peak concentration occurs. As a reminder, the Vz is the apparent volume that relates the amount in the body to the concentration in plasma or blood. Low values mean confinement near the circulation, high ones extensive tissue distribution. For `CC(C)[C@H](NC(=O)[C@H](Cc1c[nH]c2ccccc12)NC(=O)[C@H](CCCNC(=N)N)NC(=O)[C@H](CCCNC(=N)N)NC(=O)[C@@H](NC(=O)[C@@H](NC(=O)[C@H](CCCNC(=N)N)NC(=O)[C@@H](NC(=O)[C@@H](NC(=O)[C@H](CCCNC(=N)N)NC(=O)[C@H](CCCNC(=N)N)NC(=O)[C@H](Cc1c[nH]c2ccccc12)NC(=O)[C@@H](NC(=O)[C@H](CCCNC(=N)N)NC(=O)[C@H](CCCNC(=N)N)NC(=O)[C@@H](NC(=O)[C@H](CCCNC(=N)N)NC(=O)[C@H](CCCNC(=N)N)NC(=O)[C@@H](NC(=O)[C@H](Cc1c[nH]c2ccccc12)NC(=O)[C@H](CCCNC(=N)N)NC(=O)[C@@H](N)CCCNC(=N)N)C(C)C)C(C)C)C(C)C)C(C)C)C(C)C)C(C)C)C(C)C)C(=O)N[C@@H](CCCNC(=N)N)C(=O)N[C@@H](CCCNC(=N)N)C(N)=O` [SEQ ID NO: 1] (H-RRWVRRVRRVWRRVVRVVRRWVRR-NH2), in series [1] (Enterococcus faecium (n = 104)), the MIC50 was 1 µg/mL (≈ 0.294 µM), the MIC90 worked out at 2 µg/mL (≈ 0.588 µM) and the “Mode (MIC)” value came out at 1 µg/mL. In series [1] (isolates (n = 104)), this molecule yielded an MIC50 of 0.5 µg/mL (≈ 0.147 µM), an MIC90 of 1 µg/mL (≈ 0.294 µM) and an MIC range of 0.25 to 2 µg/mL. Also, in series [2] (1 mg/kg, Mean of group), the “AUCinf Extrapolated” value is on record as 10.0%, the CL was 18.5 mL/min/kg, the “Dose Normalized AUClast” value came to 983 and the “Dose Normalized Cmax” value turned out to be 1710. Moreover, in series [2] (1 mg/kg, Mean of group), the Vss amounted to 1.38 L/kg. Also, in series [2] (1 mg/kg, individual monkeys), the CL was determined as 9.65 mL/min/kg; the “Dose Normalized AUClast” value is 740 and 1610 and 595; the “Dose Normalized Cmax” value was 1460 and 2660 and 997. Moreover, in series [2] (3 mg/kg, Mean of group), the “AUCinf Extrapolated” value is on record as 1.5%, the CL stood at 7.18 mL/min/kg, the “Dose Normalized AUClast” value is on record as 2530 and the “Dose Normalized Cmax” value is given as 3450. For the same molecule, in series [2] (3 mg/kg, Mean of group), the T1/2 came to 5.2 h and the time of peak concentration (Tmax) was 6.6 min. In series [2] (3 mg/kg, individual monkeys), the “AUCinf Extrapolated” value is 1.2% and 2.3% and 1.1%; the “Dose Normalized AUClast” value is 2220 and 3660 and 1710; the “Dose Normalized Cmax” value is 2280 and 5170 and 2900; the T1/2 came to 5 h. Also, in series [2] (10 mg/kg, Mean of group), the “AUCinf Extrapolated” value is listed as 1.3%, the CL came out at 6.32 mL/min/kg, the “Dose Normalized AUClast” value amounted to 5030 and the “Dose Normalized Cmax” value was determined as 3820. In series [2] (10 mg/kg, Mean of group), this molecule gave a T1/2 of 4.6 h. Further, in series [2] (10 mg/kg, individual monkeys), the “AUCinf Extrapolated” value was 1.0% and 1.8% and 0.99%; the CL stood at 7.5 mL/min/kg; the “Dose Normalized Cmax” value was 2600 and 2430 and 6430; the T1/2 is 4.3 h and 4.9 h and 4.6 h. Also, under setting [4], the AUCinf_D turned out to be 787 kg·ng·h/mL/ng, the CL was found to be 21.87 mL/min/kg, the Extrapolated is listed as 3.28% and the Vss is 3.401 L/kg. Besides, under setting [4], the Vz turned out to be 10.884 L/kg. Under setting [5], the AUCinf_D came out at 5158 kg·ng·h/mL/ng, the Extrapolated is 0.424%, the volume of distribution (Vss) came to 0.229 L/kg and the Vz worked out at 1.533 L/kg. For the same molecule, under setting [6], the AUCinf_D amounted to 8049 kg·ng·h/mL/ng, the CL was found to be 2.12 mL/min/kg, the Extrapolated is recorded as 0.186% and the Vz was determined as 0.749 L/kg.

Take Colistin [reference compound]: the “MIC QC range (in parentheses under the MIC)” value in series [3] was “(0.25-2) μg/mL”.
